Structures can show the parent of a compound that is named as a salt.
Columns and labels:
[1] = Timed release (dissolution) of respirable solid amiloride particles in Krebs-Ringer solution approximating plasma, assayed as bioactive amiloride; format: physicochemical; details: amiloride hydrochloride particles ~1 μm; aqueous solution approximating ionic strength of plasma
From the text: (§1) Freshly excised human cystic fibrosis airway […] used to assay bioactive amiloride in solution. Freshly excised tissues is obtained from the Operating Room at The University of North Carolina Hospitals as previously described. R. Boucher, M. Stutts, M. Knowles, L. Cantley, and J. Gatzy, Na+ transport in cystic fibrosis respiratory epithelia. Abnormal basal rate and response to adenylate cyclase activation. J. Clin. Invest. 78, 1245-1252 (1986). The tissue preparation is mounted in a minature Ussing chamber that has 6 ml of solution bathing each (mucosal; basolateral) surface of the preparation. The solution is a Krebs-Ringer bicarbonate solution which approximates the ionic composition of plasma. This solution is warmed (37°) and circulated with a gas lift (95% oxygen, 5% CO2) system. Mixing time in this chamber has been previously measured by calibration with dyes (blue dextran) and is five seconds or less. The measurement of sodium transport rates is performed using a voltage clamp that is interfaced to the tissue preparation by pairs of potential sensing electrodes and current passing electrodes. The current required to null the transepithelial potential difference to zero is the short circuit current, which in human airway tissue is an accurate index of sodium transport rates. See R. Boucher et al., supra.

[2] = test system: human cystic fibrosis airway epithilia; assay: Inhibition of Na+ transport (short circuit current, ISC) by amiloride hydrochloride dry powder in minature Ussing chamber; format: cell-based
From the text: as §1, with “supra. […] This experiment was conducted as described above. […]” for “supra.”

[3] = liquid aerosol, cystic fibrosis; cited from earlier work
[4] = Size distribution of amiloride aerosol (Andersen impactor); format: physicochemical; details: MDI with spacer, 60 Lpm
Method: In each test, the MDI aerosol was dispersed into the spacer via a 50 μl metering valve designed to deliver 1 mg amiloride per puff; however, the actual delivery was closer to 3 mg/puff as determined by spectrophotometric analysis of all amiloride collected as discussed below.
After each experiment, the apparatus was disassembled and each component washed individually with 50 ml of distilled water to remove amiloride and lactose particles.

[5] = test system: airway epithelia; details: applied to luminal membrane; cited from earlier work
[6] = in vivo, po; cited from earlier work
[7] = in vivo

SMILES	timed release effect of respirable solid particles [1]	inhibition of ISC ([2]; about 1 μm, at about sixty minutes)	time to complete inhibition of ISC ([2]; particle size about 1 μm, Krebs-Ringer bicarbonate, 37°)	clinical benefit [3]	mass median diameter (mmd) [4]	inhibition of Na+ and water absorption [5]	effective concentration in the airway lumen [6]	maximum systemic dose [7] [mg daily]
N=C(N)NC(=O)c1nc(Cl)c(N)nc1N [amiloride hydrochloride]	dissolved slowly over time	Complete Inhibition	about sixty					
N=C(N)NC(=O)c1nc(Cl)c(N)nc1N [amiloride]				clinical benefit	about 6 um	inhibit	cannot be achieved	20

Source: patent US5725842A, “Method of administering amiloride” (priority 1996, dated 1998)
